“And” between values parts separate entries of the source, which are not always exact repeats. Identical values can stand only once. Like-named read-outs stand apart in the source and are kept apart here.
What was measured:
pSmad2 in IPF PCLS = test: pSmad2 in precision cut lung slices (PCLS) from IPF patients; type: cell-based, human; conditions: for IPF PCLS pSmad2/tSmad2 ratio: 1 µM compound, individual replicates n=1-3 (Fig 5f)
Method: Human fibrotic lung tissue was collected from human explants after transplantation. Tissue which the pathologist deemed suitable for research was inflated with 2–3% low boiling point agarose, with the agarose being allowed to set at 4 °C. PCLS were then cut at 400 μm on a vibrating microtome and cultured in DMEM media.

[1] = test system: αvβ6-mediated TGFβ activation; test: cells; type: cell-based, human; conditions: for activity: read-out: % inhibition of pSmad2 (NHBE cells); for IC50: Homo sapiens
pSmad2 in lung tissue = test: Lung tissue pSmad2 in bleomycin-treated mice, single dose; type: in vivo, mouse
Method: (§1) For the measurement of concentration-dependent effects of αvβ6 and TGFβR1 inhibitors on TGFβ activation and signaling in NHBE cells, pSmad2 (normalized to GAPDH) was measured. pSmad2 and GAPDH was quantified using the Milliplex TGFβ Signaling Magnetic Bead Panel 6 plex (Merck Millipore, Billerica, MA, USA) luminex assay according to the manufacturer’s instructions. pSmad2 was determined using the same method for in vivo and ex vivo tissue and BAL samples, however data were normalized to tSmad2. tSmad2 was measured in the Pathscan Total Smad2 sandwich ELISA kit (Cell Signaling Technologies, London, UK), according to the manufacturer’s instructions with standard curves generated using recombinant GST-Smad2. βIG-H3 was determined in mouse and human BAL fluid samples using the mouse or human βIG-H3 DuoSet ELISA kit (R&D Systems, Abingdon, USA) respectively, according to the manufacturer’s instructions. PAI-1 was determined in mouse and human BAL fluid samples using the mouse or human PAI-1 Total antigen ELISA kit (Molecular Innovations, Novi, MI, USA) respectively, according to the manufacturer’s instructions.
(§2) Animal welfare followed the requirements of the Home Office Code of Practice for the Housing and Care of Animals used in Scientific Procedures. […] Play tunnels and bedding material were used to provide environmental enrichment. […]

pSmad2 in BAL cells = type: in vivo, mouse; conditions: bleomycin mice
Method: as §1, §2

[2] = 30 mg/kg p.o., 2 h post dosing, in words
[3] = SB-525334 30 mg/kg p.o., 2 h, individual animals, 30 mg/kg

O=C(O)C[C@@H]1Cc2ccc(OCCCNc3ccccn3)cc2CN(CC(F)(F)F)C1=O [SB-267268]
IPF PCLS pSmad2/tSmad2 ratio (pSmad2 in IPF PCLS; IPF PCLS): 0.766 and 0.64 and 0.76 | pSmad2 levels in IPF PCLS (pSmad2 in IPF PCLS; in words): Neither compound inhibited pSmad2 levels

Cc1cccc(-c2[nH]c(C(C)(C)C)nc2-c2ccc3nccnc3c2)n1 [SB-525334]
IPF PCLS pSmad2/tSmad2 ratio (pSmad2 in IPF PCLS; IPF PCLS): 0.063 and 0.062 and 0.055 | % pSmad2 in IPF PCLS (pSmad2 in IPF PCLS; SB-525334 1µM): 1% and 0% and -1% | activity ([1]; Log [SB-525334] M -6): 15% and 11% and 10% and 14% | activity ([1]; Log [SB-525334] M -9): 138% and 105% and 82% and 100% | activity ([1]; Log [SB-525334] M -11.4): 114% | pIC50 for inhibition of αvβ6-mediated TGFβ activation (pSmad2) ([1]; NHBE cells): 7.28 ± 0.13 | pSmad2 levels in lung tissue (pSmad2 in lung tissue; [2]): significantly reduce | Lung tissue pSmad2/tSmad2 ratio (pSmad2 in lung tissue; [3]): 0.09 and 0.07 and 0.1 and 0.13 | pSmad2 levels in BAL cells (pSmad2 in BAL cells; [2]): significantly reduce | BAL cell pSmad2/tSmad2 ratio (pSmad2 in BAL cells; [3]): 1.33 and 0.67 and 0.7 and 1.48 and 0.61 and 0.44 and 2.35 and 1.1 and 1

Cc1cc(C)n(-c2cccc([C@H](CC(=O)O)CN3CC[C@@H](CCc4ccc5c(n4)NCCC5)C3)c2)n1 [GSK3008348]
IC50 (pSmad2 in IPF PCLS; Homo sapiens, IPF PCLS, 48 h, read-out: approximate IC50 for reduction of pSmad2): ~3 nM | IC50 ([1]; NHBE cells, read-out: IC50 for inhibition of αvβ6-mediated TGFβ activation (pSmad2)): 0.15 nM | IC50 ([1]; NHBE cells, read-out: pIC50 for inhibition of αvβ6-mediated TGFβ activation (pSmad2) (converted)): 0.741 nM | activity ([1]; Log [GSK3008348] M -9): 47% and 37% and 58% and 41% | activity ([1]; Log [GSK3008348] M -10.8): 108% | activity [1]: 92% and 95%
